Results from US8822699B2, “Heterocyclic compound and use thereof” (Takeda Pharmaceutical Company Limited, priority 2010, dated 2014).
Where two headings read alike, the source gives them in different places.

Test system: Aβ42 production in primary nerve cells
Assay: Measurement of amyloid β production inhibition rate using primary nerve cell (Aβ42 sandwich ELISA)
Assay type: cell-based
Conditions: primary nerve cells from cerebral cortex of SD rat fetus, cultured 3 days with compound, culture supernatant, sandwich ELISA for Aβ42, read-out: Aβ42 production inhibitory activity IC50
Method: Measurement of Amyloid β Production Inhibition Rate Using Primary Nerve Cell
The primary nerve cells were collected from the cerebral cortex of rat fetus (CLEA Japan, Inc.: SD rat, fetal life 17 days of age), and suspended in a neurobasal medium containing B27 supplement, L-glutamine, penicillin-streptomycin (manufactured by Invitrogen) at 500,000 cells/mL. Then, the suspension was seeded in poly L-lysine-coated 96 well plate (manufactured by SUMITOMO BAKELITE) by 100 μL, and cultured at 37° C., 5% CO2 for 7 days. The medium was completely removed, and a new neurobasal medium was added at 75 μL/well. Thereto was added (75 μL/well) a neurobasal medium supplemented with a 2-fold measurement concentration of an evaluation target compound, and the mixture was cultured for 3 days. The culture supernatant was collected from each well, diluted as appropriate, applied to sandwich ELISA between BNT77 antibody-BA27 antibody (for Aβ40) and sandwich ELISA between BNT77 antibody-3005 antibody (for Aβ42), and the amounts of Aβ40 and Aβ42 were measured.
The amyloid β production inhibition rate (%) of the compound was calculated by the following formula. (1−(amyloid β production amount with addition of compound)/(amyloid β production amount without addition of compound))×100
The amyloid β production 50% inhibitory rate (IC50 value) was calculated using the statistical analysis software (SAS Preclinical Package) as the concentration of the compound showing 50% inhibition when the amyloid β production amount without addition of the compound is 100%. In addition, a new neurobasal medium was added (75 μL/well) to the cells after collection of the culture supernatant, and the cells were left standing for about 30 min to reach room temperature. Cell-Titer Glo Luminescent Cell Viability Assay (manufactured by Promega) was added at 75 μL/well, and the plate was shaken for 2 min and reacted for about 10 min.

## COc1cc(-c2nnc3n2CCCC3(C)c2ccc(Cl)cc2)ccc1-c1cnc(C)o1 (single isomer, unassigned) [Example 4, optically active 8-(4-chlorophenyl)-3-[3-methoxy-4-(2-methyl-1,3-oxazol-5-yl)phenyl]-8-methyl-5,6,7,8-tetrahydro[1,2,4]triazolo[4,3-a]pyridine]
  IC50: 32 nM

## COc1nc(-c2nnc3n2CCC[C@]3(Oc2cc(F)c(F)c(F)c2)C(C)(C)O)ccc1-n1cnc(C)c1 [Example 197, 2-{(8R)-3-[6-methoxy-5-(4-methyl-1H-imidazol-1-yl)pyridin-2-yl]-8-(3,4,5-trifluorophenoxy)-5,6,7,8-tetrahydro[1,2,4]triazolo[4,3-a]pyridin-8-yl}propan-2-ol monogentisate]
  IC50: 30 nM

## COc1cc(-c2nnc3n2CCCC3(C)c2ccc(Cl)cc2)ccc1-c1cnc(C)o1 (single isomer, unassigned) [Example 3, 8-(4-chlorophenyl)-3-[3-methoxy-4-(2-methyl-1,3-oxazol-5-yl)phenyl]-8-methyl-5,6,7,8-tetrahydro[1,2,4]triazolo[4,3-a]pyridine]
  IC50: 459 nM

## COc1cc(-c2nnc3n2CCCC3(CC2CC2)c2ccc(Cl)c(C(F)(F)F)c2)ccc1-n1cnc(C)c1 (centres unmarked) [Example 78, 8-[4-chloro-3-(trifluoromethyl)phenyl]-8-(cyclopropylmethyl)-3-[3-methoxy-4-(4-methyl-1H-imidazol-1-yl)phenyl]-5,6,7,8-tetrahydro[1,2,4]triazolo-[4,3-a]pyridine]
Rattus norvegicus, 72 h
  IC50: 55 nM

## COc1cc(-c2nnc3n2CCCC3(OCc2ccc(F)c(F)c2)C(=O)N(C)CC(F)(F)F)ccc1-c1cnc(C)o1 (centres unmarked) [Example 108, 8-[(3,4-difluorobenzyl)oxy]-3-[3-methoxy-4-(2-methyl-1,3-oxazol-5-yl)phenyl]-N-methyl-N-(2,2,2-trifluoroethyl)-5,6,7,8-tetrahydro[1,2,4]triazolo[4,3-a]pyridine-8-carboxamide]
Rattus norvegicus, 72 h
  IC50: 67 nM

## COc1cc(-c2nnc3n2CCCC3(Oc2cc(F)c(F)c(F)c2)C(=O)N(C)CC(F)(F)F)ccc1-c1cnc(C)o1 (centres unmarked) [Example 160, 3-[3-methoxy-4-(2-methyl-1,3-oxazol-5-yl)phenyl]-N-methyl-N-(2,2,2-trifluoro-ethyl)-8-(3,4,5-trifluorophenoxy)-5,6,7,8-tetrahydro-[1,2,4]triazolo[4,3-a]pyridine-8-carboxamide]
Rattus norvegicus, 72 h
  IC50: 19 nM

## COc1cc(-c2nnc3n2CCCC3(c2ccc(F)c(F)c2)C(C)(C)O)ccc1-c1cnc(C)o1 (centres unmarked) [Example 32, 2-{8-(3,4-difluorophenyl)-3-[3-methoxy-4-(2-methyl-1,3-oxazol-5-yl)phenyl]-5,6,7,8-tetrahydro[1,2,4]triazolo[4,3-a]pyridin-8-yl}propan-2-ol]
Rattus norvegicus, 72 h
  IC50: 143 nM

## COc1cc(-c2nnn3c2CCCC3(Oc2cc(F)c(F)c(F)c2)C(C)(C)O)ccc1-c1cnc(C)o1 (centres unmarked) [Example 191, optically active 2-{3-[3-methoxy-4-(2-methyl-1,3-oxazol-5-yl)phenyl]-7-(3,4,5-trifluorophenoxy)-4,5,6,7-tetrahydro[1,2,3]triazolo[1,5-a]pyridin-7-yl}propan-2-ol]
  IC50: 8 nM

## COc1cc(-c2nnc3n2CCCC3(Cc2ccc(F)c(F)c2)C(C)(C)O)ccc1-c1cnc(C)o1 (centres unmarked) [Example 50, optically active 2-{8-(3,4-difluorobenzyl)-3-[3-methoxy-4-(2-methyl-1,3-oxazol-5-yl)phenyl]-5,6,7,8-tetrahydro[1,2,4]triazolo[4,3-a]pyridin-8-yl}propan-2-ol]
  IC50: 14 nM

## COc1cc(-c2nnc3n2CCCC3(CC2CC2)c2ccc(F)c(F)c2)ccc1-c1cnc(C)o1 (centres unmarked) [Example 20, 8-(cyclopropylmethyl)-8-(3,4-difluorophenyl)-3-[3-methoxy-4-(2-methyl-1,3-oxazol-5-yl)phenyl]-5,6,7,8-tetrahydro[1,2,4]triazolo-[4,3-a]pyridine]
  IC50: 35 nM

## Cc1ncc(-c2ccc(-c3nnc4n3CCCC4(Oc3ccc(F)c(F)c3)C(C)(C)O)cc2OCC(F)F)o1 (centres unmarked) [Example 175, 2-{3-[3-(2,2-difluoroethoxy)-4-(2-methyl-1,3-oxazol-5-yl)phenyl]-8-(3,4-difluorophenoxy)-5,6,7,8-tetrahydro[1,2,4]-triazolo[4,3-a]pyridin-8-yl}propan-2-ol]
Rattus norvegicus, 72 h
  IC50: 103 nM

## COc1cc(-c2nnc3n2CCCC3(Nc2cc(F)c(F)c(F)c2)C(C)(C)O)ccc1-c1cnc(C)o1 (centres unmarked) [Example 181, 2-{3-[3-methoxy-4-(2-methyl-1,3-oxazol-5-yl)phenyl]-8-[(3,4,5-trifluorophenyl)amino]-5,6,7,8-tetrahydro[1,2,4]triazolo[4,3-a]pyridin-8-yl}propan-2-ol]
Rattus norvegicus, 72 h
  IC50: 58 nM

## COc1cc(-c2nnc3n2CCCC3(Sc2ccc(F)c(F)c2)C(C)(C)O)ccc1-c1cnc(C)o1 (centres unmarked) [Example 140, 2-{8-[(3,4-difluorophenyl)sulfanyl]-3-[3-methoxy-4-(2-methyl-1,3-oxazol-5-yl)phenyl]-5,6,7,8-tetrahydro[1,2,4]triazolo[4,3-a]pyridin-8-yl}propan-2-ol]
Rattus norvegicus, 72 h
  IC50: 41 nM

## COc1cc(-c2nnc3n2CCCC3(Cc2ccc(F)c(F)c2)C(=O)N(C)CC(F)(F)F)ccc1-c1cnc(C)o1 (centres unmarked) [Example 60, 8-(3,4-difluorobenzyl)-3-[3-methoxy-4-(2-methyl-1,3-oxazol-5-yl)phenyl]-N-methyl-N-(2,2,2-trifluoroethyl)-5,6,7,8-tetrahydro[1,2,4]triazolo[4,3-a]pyridine-8-carboxamide]
Rattus norvegicus, 72 h
  IC50: 50 nM

## Cc1ncc(-c2ccc(-c3nnc4n3CCCC4(Oc3cc(F)c(F)c(F)c3)C(C)(C)O)cc2)o1 (centres unmarked) [Example 178, 2-{3-[4-(2-methyl-1,3-oxazol-5-yl)phenyl]-8-(3,4,5-trifluorophenoxy)-5,6,7,8-tetrahydro[1,2,4]triazolo[4,3-a]pyridin-8-yl}propan-2-ol]
Rattus norvegicus, 72 h
  IC50: 168 nM

## COc1cc(-c2nnc3n2CCCC3(Oc2ccc(Cl)c(F)c2)C(C)(C)O)ccc1-c1cnc(C)o1 (centres unmarked) [Example 70, 2-{8-(4-chloro-3-fluorophenoxy)-3-[3-methoxy-4-(2-methyl-1,3-oxazol-5-yl)phenyl]-5,6,7,8-tetrahydro[1,2,4]triazolo[4,3-a]pyridin-8-yl}propan-2-ol]
Rattus norvegicus, 72 h
  IC50: 10 nM

## COc1nc(-c2nnc3n2CCC[C@]3(Oc2cc(F)c(F)c(F)c2)C(C)(C)O)ccc1-n1cnc(C)c1 [Example 194, 2-{(8R)-3-[6-methoxy-5-(4-methyl-1H-imidazol-1-yl)pyridin-2-yl]-8-(3,4,5-trifluorophenoxy)-5,6,7,8-tetrahydro[1,2,4]triazolo[4,3-a]pyridin-8-yl}propan-2-ol 0.67 phosphate]
  IC50: 33 nM

## COc1cc(-c2nnc3n2CC(C)CC3(Oc2ccc(F)c(F)c2)C(C)(C)O)ccc1-c1cnc(C)o1 (stereo not drawn) [Example 150, (6RS,8RS or 6RS,8SR)-2-{8-(3,4-difluorophenoxy)-3-[3-methoxy-4-(2-methyl-1,3-oxazol-5-yl)phenyl]-6-methyl-5,6,7,8-tetrahydro[1,2,4]triazolo[4,3-a]pyridin-8-yl}propan-2-ol]
Rattus norvegicus, 72 h
  IC50: 118 nM

## COc1nc(-c2nnc3n2CCC[C@]3(Oc2cc(F)c(F)c(F)c2)C(C)(C)O)ccc1-n1cnc(C)c1 [Example 177, 2-{(8R)-3-[6-methoxy-5-(4-methyl-1H-imidazol-1-yl)pyridin-2-yl]-8-(3,4,5-trifluorophenoxy)-5,6,7,8-tetrahydro[1,2,4]triazolo[4,3-a]pyridin-8-yl}propan-2-ol monophosphate]
  IC50: 34 nM

## COc1nc(-c2nnc3n2CCCC3(Oc2ccc(F)c(F)c2)C(C)(C)O)ccc1-n1cnc(C)c1 (centres unmarked) [Example 135, 2-{8-(3,4-difluorophenoxy)-3-[6-methoxy-5-(4-methyl-1H-imidazol-1-yl)pyridin-2-yl]-5,6,7,8-tetrahydro[1,2,4]triazolo[4,3-a]pyridin-8-yl}propan-2-ol]
Rattus norvegicus, 72 h
  IC50: 123 nM

## Cc1ncc(-c2ccc(-c3nnc4n3CCCC4(Oc3cc(F)c(F)c(F)c3)C(C)(C)O)cc2F)o1 (centres unmarked) [Example 166, 2-{3-[3-fluoro-4-(2-methyl-1,3-oxazol-5-yl)phenyl]-8-(3,4,5-trifluorophenoxy)-5,6,7,8-tetrahydro[1,2,4]triazolo[4,3-a]pyridin-8-yl}propan-2-ol]
Rattus norvegicus, 72 h
  IC50: 360 nM

## COc1cc(-c2nnn3c2CCCC3(C)c2ccc(Cl)c(Cl)c2)ccc1-n1cnc(C)n1 (centres unmarked) [Example 91, 7-(3,4-dichlorophenyl)-3-[3-methoxy-4-(3-methyl-1H-1,2,4-triazol-1-yl)phenyl]-7-methyl-4,5,6,7-tetrahydro[1,2,3]triazolo[1,5-a]pyridine]
Rattus norvegicus, 72 h
  IC50: 148 nM

## COc1cc(-c2nnc3n2CCCC3(Cc2ccc(F)c(F)c2)C(C)(C)O)ccc1-c1cnc(C)o1 (centres unmarked) [Example 49, 2-{8-(3,4-difluorobenzyl)-3-[3-methoxy-4-(2-methyl-1,3-oxazol-5-yl)phenyl]-5,6,7,8-tetrahydro[1,2,4]triazolo[4,3-a]pyridin-8-yl}propan-2-ol]
  IC50: 31 nM
